From US20040106663A1, “Inhibitors of fungal invasion” (priority 2002, published 2004)
pIC50: −log10 of the molar value. “And” between values parts separate entries of the source, which are not always exact repeats. Equal values may be shown once.

How the values were obtained:
[1] = system: HepG2 human hepatoma cells; settings: cited from earlier work
[2] = system: C. albicans; experiment: Mouse model of fungal invasion, kidney histology score (Compound III in diet); format: in vivo; settings: mice, powdered diet supplemented from t=−24 h to t=48 h, FIG. 2
Protocol: A mouse model of fungal invasion was used to examine the in vivo efficacy of orally administered Compound III in reducing invasion by C. albicans. Briefly, one day prior to infection (t=−24 h) mice were switched to a powdered diet supplemented Compound III (treatment mice) or no supplement (control mice). This diet was continued until the mice were sacrificed at t=48 h. The kidneys of the mice were then examined for histologic signs of fungal invasion. In the scoring system used, a score of 5 indicates the presence of many, large fungus-dominated lesions, a score of 3 indicates the presence of many inflammatory lesion and fungus-dominated lesion of mixed size, and a score of 1 indicates few, mainly inflammatory lesions.

[3] = system: C. albicans; experiment: Mouse model of fungal invasion, kidney lesion count (Compound II, IP and oral); format: in vivo; settings: mice, 1 mg IP and oral repeated, 2×10^6 C. albicans, sacrifice about t=19 h, FIG. 1
Protocol: A mouse model of fungal invasion was used to examine the in vivo efficacy of Compound II in reducing invasion by C. albicans.
Briefly, 30 min prior to infection (t=−30 min) 1 mg of Compound II in buffer (10 treatment mice) or buffer only (10 control mice) was administered IP. At t=0 all mice were inoculated with 2×10^6 C. albicans. At t=6 h and t=14 h the IP treatment with Compound II or buffer was repeated. In addition, at t=2, t=4 h, t=10 h, and t=18 h 1 mg of Compound II or buffer only was administered orally. The mice were sacrificed at about t=19 h and the kidneys of the mice were examined for histologic signs of fungal invasion by counting the number of lesions.

[4] = system: stationary phase C. albicans (MC295) containing HWP1-lacZ; experiment: microbe, parasite or virus in culture; format: cell-based, Candida albicans; settings: Candida albicans, read-out: C. albicans STAT IC50, stationary phase growth invasion assay
[5] = system: logarithmic phase C. albicans (MC295) containing HWP1-lacZ; experiment: microbe, parasite or virus in culture; format: cell-based; settings: Candida albicans, read-out: C. albicans LOG IC50, logarithmic phase growth invasion assay (converted)
[6] = system: HepG2 human hepatoma cells; settings: 4 h
Protocol: Mammalian Cell Toxicity Assay
To investigate the toxicity of Compound I for mammalian cells, human hepatoma cell line HepG2 were exposed to Compound I and the (LD50) was determined. Briefly, HepG2 human hepatoma cells (American Type Culture Collection, Bethesda Md.) were plated at 1×10^5 cells/well in tissue culture treated 96 well plates and incubated at 5% CO2, 37° C. for 18 h prior to initiation of the assay. The compound stocks at 100 mM in DMSO were added to DM (defined media, media without serum with added insulin, selenium and transferrin) at an initial concentration of 1000 μM and serially diluted 1 to 3 in DM in a 96 well plate. For 20 μL of a test solution, 3.5 μL sample is added to 346.5 μL media for an initial concentration of 1000 μM. These dilutions are added to the cells at final sample concentrations between 0.5 and 1000 μM (<1% DMSO). Controls included: media only (negative control) and 0.1% Triton-X (positive control). Control drugs (tamoxifen and 2-thiouracil) were also used to verify each assay. The samples were incubated at 37° C. in humidified 5% CO2 atmosphere for 4 h.
The plate was read directly on the Tecan Spectrafluor Plus reader in the fluorescent mode at excitation 530 nm and emission 595 nm. The blank was subtracted from the total fluorescence to give the net fluorescence for that well. This total was compared to the control in the absence of the compound. An LD50 (concentration at 50% of lethal dose) is calculated as the concentration that leads to a response of 50% compared to the control cells. Thus, cytotoxicity is measured as percent of inhibition of cell viability as determined by the Alamar Blue assay.

[7] = system: C. albicans; experiment: C. albicans overnight growth inhibition; format: cell-based, Candida albicans; parameters: concentration or dose not given beside the values
[8] = system: C. albicans (MC303); experiment: C. albicans morphology assay (hyphae scored 1-5); settings: invasion morphology phenotype, test compound at 10 μM, scale 1-5
Protocol: In this assay, described in greater detail below, the morphology of cells was assessed and scored on a 1-5 scale. A score of 1 was assigned to non-hyphal cells, “yeast-like” cells and budding cells, and a score of 5 was assigned to cells having many, relatively long (wild-type) hyphae.
A frozen stock culture was prepared by streaking C. albicans (MC303: ura3 Δ:: imm434/ura3Δ:: imm434 arg4::hisG/arg4::hisG ade2:: URA3:.pTEF1-lacZ/ADE2 hisl::hisG/HIS1 gal1::ARG4/GAL1) cells on a YPD agar plate and grown at 30° C. for 14-18 h. An isolated colony was added to 5 mL of YPD broth and grown on a roller drum (60 rpm) for 14-18 h at 30° C. Next, 600 μL of culture were aliquotted into 1 mL of 25% glycerol, and the tubes are stored at −80° C.
Frozen MC303 C. albicans cell stock was struck for isolation of a single colony using a sterile loop on a YPD agar plate and grown at 30° C. for 14-18 h. A single colony was inoculated into 5 mL of YPD in a test tube and grown on a roller drum (60 rpm) for 2 days at 30° C. to late stationary phase (OD600˜30). For the assay, this stock was diluted to 2.5×10^5 cells/mL to make a 10× stock. Next, 10 μL of this cell stock was added to 80 μL of Inducing Media and 10 μL of 10× compound stock or DMSO in a Coming, tissue-culture treated, flat-bottom, microtiter plate. The plate was incubated at 37° C. for 24 h. Next, 10 μL of formaldehyde (37%) was added to each well and the cells were fixed for 10 min. The liquid was gently decanted from the plate and each well was examined under a microscope. Each well was photographed and observed cells are scored on a scale of 1-5. […] A 1 indicates cells are non-hyphal with only “yeast-like” cells and budding cells.
Scores of 2, 3, and 4 indicate shorter length or reduced quantity of hyphae when compared with WT (2 being very near non-hyphal and 4 being close to WT).

| Structure (SMILES) | pIC50 [4] | IC50 [5] | AFDD Mammalian Cytotoxicity LD50 [6] | C. albicans Overnight Growth Inhibition [7] | C. albicans Phenotype Rating [8] | also measured |
| --- | --- | --- | --- | --- | --- | --- |
| O=c1cc[nH]c(=S)[nH]1 [Compound 2-thiouracil, 2-thiouracil] | – | – | – | – | – | expected LD50 of control drug [1]: > 1000 µM |
| Cc1cc(NS(=O)(=O)c2ccc(-c3ccc(F)cc3F)cc2)no1 [Compound III] | – | – | – | – | – | kidney histology score (severity of fungal invasion) [2]: decreases severity of fungal invasion relative to the control |
| Cc1cc(NS(=O)(=O)c2ccc(-c3cc(F)cc(F)c3)cc2)no1 [Example 1, N-(5-methyl-3-isoxazolyl)-4′-(3,5-difluorophenyl)benzensulfonamide] | – | – | – | – | – | melting point: 175 °C |
| CCCNc1ccc(S(=O)(=O)Nc2cc(C)on2)cc1 [Compound II] | – | – | – | – | – | number of lesions on kidneys [3]: decreases the number of lesion relative to the control |
| CCCCCCc1ccc(S(=O)(=O)Nc2cc(C)on2)cc1 | 5.54 | 9.9 nM | 449.1 µM | 32.5% | 2 and 4 and 5 | – |
| Cc1cc(NS(=O)(=O)c2ccc(-c3ccco3)cc2)no1 | < 4.70 | 39 nM | >1000 µM | 23.9% | 4 | – |
| CCc1ccc(S(=O)(=O)Nc2cc(C)on2)cc1 | < 4.70 | 1610 nM | >1000 µM | −78.9% | 4 | – |
| CCCCc1ccc(S(=O)(=O)Nc2cc(C)on2)s1 [Example 2, 5-Butyl-N-(5-methylisoxazol-3yl)thiophene-2-sulfonamide] | – | – | – | – | – | melting point: 96.5 to 100.7 °C |
| Cc1cc(NS(=O)(=O)c2ccc(OC(F)(F)F)cc2)no1 | < 4.70 | 10700 nM | >1000 µM | 4.0% | 4 | – |
